Assay results from the NIST ThermoML archive (doi:10.1021/je049579x).
Where “and” joins values, the source holds several entries; their conditions need not be identical. Equal entries are not always repeated.

Details: Crystal, Torsion effusion method

[Br][Yb]([Br])[Br] [ytterbium tribromide]
Details | vapor or sublimation pressure
891 K | 4.7e-05 kPa
897 K | 7.9e-05 kPa and 6.3e-05 kPa
905 K | 9.3e-05 kPa and 6.3e-05 kPa
906 K | 0.000126 kPa
909 K | 0.00011 kPa
912 K | 7.9e-05 kPa
913 K | 0.00011 kPa
915 K | 0.000158 kPa
916 K | 0.000158 kPa
920 K | 0.000126 kPa
923 K | 0.000158 kPa and 0.000219 kPa
924 K | 0.000219 kPa
926 K | 0.000219 kPa
928 K | 0.000191 kPa
929 K | 0.000158 kPa
932 K | 0.000316 kPa
933 K | 0.000316 kPa
934 K | 0.000347 kPa
936 K | 0.000251 kPa and 0.000219 kPa
937 K | 0.000347 kPa
938 K | 0.000282 kPa
940 K | 0.000427 kPa
942 K | 0.000437 kPa
943 K | 0.000468 kPa
945 K | 0.000468 kPa and 0.000331 kPa
946 K | 0.000347 kPa
947 K | 0.00038 kPa
948 K | 0.000562 kPa
952 K | 0.000631 kPa
953 K | 0.000692 kPa
954 K | 0.000631 kPa
955 K | 0.000525 kPa
956 K | 0.000537 kPa and 0.000501 kPa
958 K | 0.000794 kPa
963 K | 0.000851 kPa
964 K | 0.000933 kPa
965 K | 0.000759 kPa [middle of 4 runs]
969 K | 0.001122 kPa
972 K | 0.001175 kPa
973 K | 0.000977 kPa and 0.001259 kPa
974 K | 0.000933 kPa and 0.00138 kPa
975 K | 0.000977 kPa
978 K | 0.001585 kPa
979 K | 0.001122 kPa
980 K | 0.001585 kPa
982 K | 0.001698 kPa
983 K | 0.00138 kPa
984 K | 0.001349 kPa
985 K | 0.001995 kPa
988 K | 0.002042 kPa
990 K | 0.002188 kPa
991 K | 0.001622 kPa
992 K | 0.001905 kPa
993 K | 0.00257 kPa
994 K | 0.001905 kPa
995 K | 0.002754 kPa
997 K | 0.002692 kPa
1000 K | 0.002399 kPa
1002 K | 0.002512 kPa
1003 K | 0.003631 kPa
1006 K | 0.003467 kPa
1008 K | 0.004169 kPa
1009 K | 0.003162 kPa
1012 K | 0.003388 kPa
1013 K | 0.004677 kPa
1018 K | 0.003981 kPa
1021 K | 0.004365 kPa and 0.00631 kPa
1022 K | 0.006457 kPa
1026 K | 0.005012 kPa
1032 K | 0.005754 kPa

[Cl][Yb]([Cl])[Cl] [ytterbium trichloride]
Details | vapor or sublimation pressure
944 K | 0.000158 kPa
950 K | 0.000126 kPa
952 K | 0.000126 kPa
953 K | 0.000158 kPa
958 K | 0.000158 kPa and 0.000282 kPa
961 K | 0.000219 kPa
962 K | 0.000191 kPa
966 K | 0.000191 kPa and 0.000251 kPa
970 K | 0.000251 kPa
972 K | 0.000251 kPa
974 K | 0.000347 kPa and 0.000316 kPa
975 K | 0.000316 kPa and 0.000501 kPa
976 K | 0.000282 kPa
980 K | 0.00038 kPa
981 K | 0.00038 kPa
982 K | 0.000437 kPa and 0.00038 kPa
983 K | 0.000437 kPa
986 K | 0.000407 kPa
990 K | 0.000603 kPa and 0.000468 kPa and 0.000537 kPa
992 K | 0.000562 kPa
993 K | 0.000871 kPa
994 K | 0.000631 kPa
996 K | 0.000631 kPa
999 K | 0.000759 kPa and 0.000692 kPa
1000 K | 0.000794 kPa and 0.000759 kPa
1001 K | 0.000724 kPa
1005 K | 0.000851 kPa and 0.001349 kPa
1007 K | 0.001 kPa
1008 K | 0.000912 kPa
1010 K | 0.000977 kPa and 0.001 kPa
1015 K | 0.001175 kPa and 0.00123 kPa
1016 K | 0.001413 kPa
1017 K | 0.00123 kPa and 0.001905 kPa
1019 K | 0.001318 kPa
1020 K | 0.001349 kPa and 0.001549 kPa
1023 K | 0.001514 kPa
1026 K | 0.001622 kPa
1029 K | 0.001698 kPa
1030 K | 0.002884 kPa
1035 K | 0.002188 kPa
1036 K | 0.002089 kPa and 0.002344 kPa and 0.002239 kPa
1038 K | 0.002239 kPa and 0.002188 kPa
1044 K | 0.002692 kPa and 0.00302 kPa and 0.004571 kPa
1046 K | 0.002884 kPa
1048 K | 0.00302 kPa
1050 K | 0.003388 kPa
1052 K | 0.003802 kPa
1053 K | 0.003802 kPa
1054 K | 0.003981 kPa
1055 K | 0.003802 kPa and 0.006761 kPa
1057 K | 0.004074 kPa
1062 K | 0.005129 kPa and 0.005012 kPa
1063 K | 0.004677 kPa and 0.004898 kPa and 0.005012 kPa
1064 K | 0.004898 kPa
1071 K | 0.005888 kPa and 0.006761 kPa and 0.006918 kPa
1072 K | 0.00631 kPa and 0.006918 kPa and 0.006457 kPa
1079 K | 0.008318 kPa
1081 K | 0.008913 kPa and 0.00912 kPa
1082 K | 0.00871 kPa
1087 K | 0.01 kPa
1088 K | 0.01202 kPa and 0.01148 kPa
1090 K | 0.01202 kPa
1096 K | 0.01349 kPa
